# Data published in PubChem BioAssay (NCI).
# “And” between values parts separate entries of the source, which are not always exact repeats. Equal values may be shown once.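 Results reflect a 48-hour exposure of cells in 96-well plates to compound at five concentrations. At the GI50, growth is halved. At the TGI there is no net growth.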
# Key:
# Assay in all cases: inhibition of tumour cell growth, NCI panel, 48 h
# NCI-H460 lung = system: NCI-H460 lung
# COLO 205 colon = system: COLO 205 colon
# HT29 colon = system: HT29 colon
# HCT-15 colon = system: HCT-15 colon
# TK-10 renal = system: TK-10 renal
# NCI-H226 lung = system: NCI-H226 lung
# HS 578T breast = system: HS 578T breast
Structure (SMILES),GI50 (NCI-H460 lung),TGI (NCI-H460 lung),GI50 (COLO 205 colon),TGI (COLO 205 colon),GI50 (HT29 colon),TGI (HT29 colon),GI50 (HCT-15 colon),TGI (HCT-15 colon),GI50 (TK-10 renal),TGI (TK-10 renal),GI50 (NCI-H226 lung),TGI (NCI-H226 lung),GI50 (HS 578T breast),TGI (HS 578T breast)
CC12CC=CCC1CCC1C2CCC2(C)C(c3ccc(=O)oc3)CCC12O (centres undefined),0.0338 µM,0.128 µM,0.36 µM,1.45 µM,0.0633 µM,0.768 µM,0.105 µM,0.458 µM,0.0607 µM,0.496 µM,0.219 µM,0.595 µM,0.0335 µM,0.473 µM
C/C=C(/C)c1cnc(CC(C)C)c(=O)[nH]1,–,> 100 µM,–,> 100 µM,–,> 100 µM,–,> 100 µM,–,> 100 µM,–,–,–,> 100 µM
Cn1cc(C2=C(c3cn(C)c4cc(N)ccc34)C(=O)NC2=O)c2ccccc21,1.4 µM,> 25 µM,1.63 µM,9.59 µM,1.07 µM,6.8 µM,1.04 µM,> 21.6 µM,4.03 µM,14.3 µM,3.59 µM,17.2 µM,1.06 µM,> 19.6 µM
CC(=O)c1cc(-c2ccccc2N)n(-c2ccc3c(c2)OCO3)c1C,0.169 µM,13.2 µM,0.328 µM,1.32 µM,0.292 µM,> 35.6 µM,0.296 µM,> 100 µM,0.623 µM,> 100 µM,0.239 µM,6.86 µM,0.303 µM,> 85.4 µM
Cc1nn(CNc2ccccc2C(F)(F)F)c(=S)n1/N=C/c1ccc(F)cc1,> 100 µM,> 100 µM,53.2 µM,> 100 µM,42.1 µM,> 100 µM,53.7 µM,> 100 µM,53.8 µM,> 100 µM,43.7 µM,> 100 µM,72.3 µM,> 100 µM
CC[C@@]12C=CCN3CC[C@]4(c5cc(NC(=O)COc6cc(OCC(=O)Nc7cc8c(cc7OC)N(C)[C@H]7[C@@](O)(C(=O)OC)[C@H](OC(C)=O)[C@]9(CC)C=CCN%10CC[C@]87[C@@H]%109)cc7oc(-c8ccccc8)cc(=O)c67)c(OC)cc5N(C)[C@@H]4[C@](O)(C(=O)OC)[C@H]1OC(C)=O)[C@H]32,2.55 µM,7.15 µM,3.88 µM,27.3 µM,3.42 µM,> 100 µM,1.7 µM,12.1 µM,12.3 µM,61.7 µM,4.34 µM,18 µM,3.63 µM,> 100 µM
Clc1ccc2c(c1)C(N1CCNCC1)=Nc1ccccc1O2,2.46 µM,5.41 µM,1.36 µM,2.67 µM,1.72 µM,4.19 µM,3.26 µM,11.7 µM,2.04 µM,4.72 µM,2.57 µM,11.9 µM,–,–
CC(C)(C)n1cc(-c2ccnc(NCCCNS(=O)(=O)c3ccc(Br)cc3)c2)c(-c2cccc(O)c2)n1,1.99 µM,3.99 µM,1.85 µM,3.79 µM,1.42 µM,3.79 µM,1.48 µM,3.17 µM,2.51 µM,6.62 µM,2.31 µM,5.59 µM,2.24 µM,5.53 µM
Cc1cc(=O)oc2cc(OC(=O)N(CCCl)CCCl)ccc12,–,> 100 µM,–,> 100 µM,–,> 100 µM,–,> 100 µM,–,> 100 µM,–,> 100 µM,–,> 100 µM
O=C(Nc1ccc(Br)cc1)Nc1nn(C(=O)Nc2ccc(Br)cc2)c2ccccc12,34.1 µM,> 100 µM,> 100 µM,> 100 µM,> 100 µM,> 100 µM,> 74.2 µM,> 100 µM,39.2 µM,> 100 µM,27.7 µM,> 100 µM,13.7 µM,55.8 µM
NNS(=O)(=O)c1cc(C(=O)O)cc(C(=O)O)c1,–,> 100 µM,–,> 100 µM,–,> 100 µM,–,> 100 µM,–,> 100 µM,–,> 100 µM,–,> 100 µM
COC(=O)[C@H]1[C@H]2C[C@@H]3c4[nH]c5cc(OC)ccc5c4CCN3C[C@H]2C[C@@H](OC(=O)/C=C/c2cc(OC)c(OC)c(OC)c2)[C@@H]1OC,4.82 µM,> 100 µM,3.69 µM,14.8 µM,–,–,4.32 µM,> 100 µM,3.35 µM,11.3 µM,26.7 µM,> 100 µM,5.77 µM,39.5 µM
Cc1cnc(Nc2ccc(OCCN3CCCC3)cc2)nc1Nc1cccc(S(=O)(=O)NC(C)(C)C)c1,0.228 µM and 1.09 µM,7.28 µM and > 10 µM,0.72 µM,0.859 µM and 2.55 µM,0.0973 µM and 0.564 µM,2.28 µM and 5.12 µM,0.33 µM and 1.79 µM,11.5 µM and > 10 µM,0.149 µM and 0.424 µM,3.7 µM and 1.85 µM,0.146 µM and 0.813 µM,1.9 µM and 2.97 µM,0.181 µM and 0.568 µM,2.28 µM and 3.58 µM
COC(=O)c1ccc(CN2C(=O)C(Cl)=C(Nc3ccc(OC)c(Cl)c3)C2=O)cc1,14.8 µM,> 50 µM,17 µM,> 50 µM,–,–,5.2 µM,42.4 µM,> 50 µM,> 50 µM,–,–,43 µM,> 50 µM
CCOC(=O)c1c2c(n(Cc3ccccc3)c1C)-c1nc(Cc3ccccc3)[nH]c1C(=O)C2=O,1.96 µM,4.22 µM,1.83 µM,3.33 µM,1.64 µM,3 µM,1.59 µM,2.94 µM,1.48 µM,3.08 µM,1.67 µM,4.39 µM,2.26 µM,5.34 µM
[N-]=[N+]=CC(=O)COC(=O)c1ccccc1,–,> 100 µM,–,> 100 µM,–,> 100 µM,–,> 100 µM,–,> 100 µM,–,> 100 µM,–,–
C[C@]12CC[C@H]3[C@@H](CC[C@]4(O)C[C@@H](O)CC[C@]34CO)[C@@]1(O)CC[C@@H]2C1=CC(=O)OC1,–,1.81 µM,–,29.7 µM,–,7.81 µM,–,4.72 µM,–,4.91 µM,–,13.8 µM,–,> 100 µM
Nc1nc(N)nc(CC(=O)O)n1,–,> 100 µM,–,> 100 µM,–,> 100 µM,–,> 100 µM,–,> 100 µM,–,> 100 µM,–,> 100 µM
COc1cc2c(c(OC)c1OC)-c1ccc(O)c(=O)cc1[C@@H](NC(C)=O)CC2,3.9 µM,> 100 µM and 28.6 µM,4.1 µM,> 100 µM and 35.4 µM,6.91 µM,> 100 µM and 89.7 µM,5.04 µM,> 100 µM and 28 µM,–,> 100 µM,10.5 µM,80 µM and 44 µM,14.3 µM,> 100 µM and 71.4 µM
CN(C)CCCc1c2ccccc2nc2ccc(Cl)cc12,–,25.3 µM,–,29.8 µM,–,28.5 µM,–,93.7 µM,–,27.1 µM,–,40.7 µM,–,34.4 µM
O=C(N/N=C/c1ccc(Cl)cc1)c1[nH]c2ccc(Cl)cc2c1-c1ccccc1,0.328 µM,3.99 µM,0.202 µM,0.406 µM,0.122 µM,> 36 µM,0.255 µM,–,3.3 µM,59.7 µM,0.29 µM,> 44.5 µM,–,–
CC[C@H](Nc1nc(N)nc(C2CC2)c1C#N)c1nc2cccc(NCc3ccc(C(=O)NO)cc3)c2c(=O)n1-c1ccccc1,1.7 µM,3.79 µM,2.24 µM,5.75 µM,–,–,2.05 µM,6.96 µM,2.75 µM,30.3 µM,1.47 µM,4.18 µM,2.8 µM,9.51 µM
Oc1c(Cl)cc(Cl)cc1Sc1cc(Cl)cc(Cl)c1O,2.98 µM and 2.56 µM,9.91 µM and 8.1 µM,2.22 µM and 1.67 µM,5.23 µM and 3.03 µM,3.71 µM and 2.22 µM,10.9 µM and 6.25 µM,3.44 µM and 3.06 µM,14.8 µM and 12.5 µM,3.99 µM,11.6 µM,3.1 µM and 2.26 µM,15 µM and 6.76 µM,2.47 µM and 2.32 µM,9.48 µM and 8.31 µM
COc1cc2c3c(ncc2c(OC)c1OC)-c1cc2c(cc1C3)OCO2,> 100 µM,> 100 µM,> 100 µM,> 100 µM,–,–,32.6 µM,> 100 µM,19.3 µM,46.5 µM,–,–,13.3 µM,37.5 µM
COC(=O)C(=O)C(C(=O)C(N)=O)c1nc2ccc(C(=O)c3ccccc3)cc2[nH]c1=O (centres undefined),–,> 100 µM,–,–,–,> 100 µM,–,> 100 µM,–,> 100 µM,–,> 100 µM,–,> 100 µM
CCN(CC)CCOc1c(OC)c(Br)cc2c(C)c(C(=O)OC)oc12,1.31 µM,3.75 µM,0.925 µM,3.68 µM,–,–,0.864 µM,2.46 µM,1.12 µM,2.99 µM,1.16 µM,3.39 µM,1.44 µM,3.82 µM
CNCCNc1nc2ccccc2c2c(=O)c3cc(OC)ccc3sc12,1.71 µM,3.25 µM,1.64 µM,3.34 µM,1.52 µM,3.26 µM,1.39 µM,2.83 µM,–,–,1.75 µM,3.61 µM,1.84 µM,4.33 µM
CCCCN(CC)c1ncnc2ccc(Br)cc12,17.9 µM,52.9 µM,20.4 µM,63.7 µM,–,–,22.1 µM,54.7 µM,19.7 µM,39.8 µM,16.3 µM,48 µM,13.1 µM,35.9 µM
